This passage reports emission maximum results from the Deep4Chem optical property database.

The first data set can be described thus: solvent given as SMILES. Conditions: in C1CCCCC1.
The compound `CC1=C(C(C)(C)C)C(C)=[N+]2C1=C(C)c1c(C)c(C(C)(C)C)c(C)n1[B-]2(F)F` displayed an emission maximum of 571.2 nm.

With `CC1=[N+]2C(=C(c3ccccc3C)c3ccc(C)n3[B-]2(F)F)C=C1c1cc2n(c1)[B-](F)(F)[N+]1=CC=CC1=C2c1c(C)cc(C)cc1C`, the emission maximum was determined as 640 nm.

The compound `CCCCC1(CCCC)c2cc(C#Cc3ccc4ccc5cccc6ccc3c4c56)ccc2-c2ccc(N(c3ccccc3)c3ccccc3)cc21` came in with an emission maximum of 436 nm.

The same data set, now with this note: in C1CCOC1.
`CC1=C(C(C)(C)C)C(C)=[N+]2C1=C(C)c1c(C)c(C(C)(C)C)c(C)n1[B-]2(F)F` had an emission maximum of 566.6 nm.

`c1ccc(-c2nc(-c3ccccc3)nc(-c3ccc(-n4c5ccccc5c5cc6c(cc54)C4(c5ccccc5-c5ccccc54)c4ccccc4-6)cc3)n2)cc1` registered an emission maximum of 492.65 nm.

Consider `F[B-]1(F)OC(c2ccccc2)=Nc2sc(-c3ccccc3)n[n+]21`, for which the emission maximum turned out to be 402 nm.

For the compound `O=C1CCCc2c1[nH]c1cc3c(cc21)OCO3`, the emission maximum turned out to be 403.84 nm.

With `C(=C\c1nc2ccccc2[nH]1)/c1ccc(-c2nc3c4cccnc4c4ncccc4c3[nH]2)cc1`, the emission maximum is on record as 444 nm.

`CN(C)c1ccc(/C=C/c2nc3c4ccccc4c4ccccc4c3[nH]2)cc1` came in with an emission maximum of 463 nm.

For the compound `CCCCC1(CCCC)c2cc(C#Cc3ccc4ccc5cccc6ccc3c4c56)ccc2-c2ccc(N(c3ccccc3)c3ccccc3)cc21`, the emission maximum is recorded as 498 nm.

Turning to `COc1ccc(/C=C/C(F)(F)F)c(N)c1`, the emission maximum is listed as 410 nm.

The data set is the same for the next values; noted with them: in C1COCCO1.
`CC1=C(C(C)(C)C)C(C)=[N+]2C1=C(C)c1c(C)c(C(C)(C)C)c(C)n1[B-]2(F)F` came in with an emission maximum of 565.4 nm.

`CN(C)c1ccc(/C=C/c2nc3c4ccccc4c4ccccc4c3[nH]2)cc1`: the emission maximum came out at 436 nm.

The data set is the same for the next values; noted with them: in CC1CCCCC1.
On to `CN(C)c1ccc(/C=C/c2nc3c4ccccc4c4ccccc4c3[nH]2)cc1`, for which the emission maximum is reported as 430 nm.

Turning to `COC(=O)C([NH3+])Cc1ccc2oc(-c3ccncc3)nc2c1` (centres undefined), the emission maximum is given as 356.11 nm.

Staying with this data set, now noted: in CC#N.
`CC1=C(C(C)(C)C)C(C)=[N+]2C1=C(C)c1c(C)c(C(C)(C)C)c(C)n1[B-]2(F)F` had an emission maximum of 560.6 nm.

`COC(=O)c1cc(=O)n(C)c2cc(-c3cc(OC)c(OC)c(OC)c3)sc12` showed an emission maximum of 495 nm.

As to `F[B-]1(F)OC(c2ccccc2)=Nc2sc(-c3ccccc3)n[n+]21`, the emission maximum was determined as 415 nm.

As to `O=C1CCCc2c1[nH]c1cc3c(cc21)OCO3`, the emission maximum is on record as 399.42 nm.

Consider `CC1(C)CC(=O)c2cc(F)c(F)cc2N1`, for which the emission maximum is given as 435 nm.

Regarding `COC(=O)CC1(C(=O)O)Oc2c(c(C(C)=O)c3c(c2C(C)=O)OCO3)O1`, the emission maximum is on record as 547 nm.

`C(=C\c1nc2ccccc2[nH]1)/c1ccc(-c2nc3c4cccnc4c4ncccc4c3[nH]2)cc1` displayed an emission maximum of 450 nm.

`CC1=C2C3=C(CCc4ccccc43)C(C)=[N+]2[B-](F)(F)n2c(C)c3c(c21)-c1ccccc1CC3`: the emission maximum is 599 nm.

Compound `CN(C)c1ccc(/C=C/c2nc3c4ccccc4c4ccccc4c3[nH]2)cc1` had an emission maximum of 476 nm.

`COC(=O)C([NH3+])Cc1ccc2oc(-c3ccncc3)nc2c1` (centres undefined) registered an emission maximum of 367.92 nm.

Turning to `COc1cccc(/C=C/C(=O)c2c(O)cc(C)oc2=O)c1`, the emission maximum worked out at 500 nm.

For `CCCCC1(CCCC)c2cc(C#Cc3ccc4ccc5cccc6ccc3c4c56)ccc2-c2ccc(N(c3ccccc3)c3ccccc3)cc21`, the emission maximum is 557 nm.

The data set is the same for the next values; noted with them: in CC(C)=O.
Compound `CC1=C(C(C)(C)C)C(C)=[N+]2C1=C(C)c1c(C)c(C(C)(C)C)c(C)n1[B-]2(F)F` came in with an emission maximum of 563.6 nm.

The data set is the same for the next values; noted with them: in CC(C)CC(C)(C)C.
On to `CC1=C(C(C)(C)C)C(C)=[N+]2C1=C(C)c1c(C)c(C(C)(C)C)c(C)n1[B-]2(F)F`, for which the emission maximum is given as 569 nm.

Staying with this data set, now noted: in CCC(C)C.
In the case of `CC1=C(C(C)(C)C)C(C)=[N+]2C1=C(C)c1c(C)c(C(C)(C)C)c(C)n1[B-]2(F)F`, the emission maximum was determined as 569 nm.

Staying with this data set, now noted: in CCCC(C)=O.
For `CC1=C(C(C)(C)C)C(C)=[N+]2C1=C(C)c1c(C)c(C(C)(C)C)c(C)n1[B-]2(F)F`, the emission maximum was determined as 562.6 nm.

Still in this data set, the particulars now being: in CCCCCC.
Turning to `CC1=C(C(C)(C)C)C(C)=[N+]2C1=C(C)c1c(C)c(C(C)(C)C)c(C)n1[B-]2(F)F`, the emission maximum amounted to 567.8 nm.

As to `c1ccc(-c2nc(-c3ccccc3)nc(-c3ccc(-n4c5ccccc5c5cc6c(cc54)C4(c5ccccc5-c5ccccc54)c4ccccc4-6)cc3)n2)cc1`, the emission maximum turned out to be 396.27 nm.

`CCCCN1C(=O)C(=CC=C2N(CCCC)c3ccccc3N2CCCC)C(=O)N(CCCC)C1=S`: the emission maximum is reported as 488 nm.

The same data set, now with this note: in CCCCCCCCO
Compound `CC1=C(C(C)(C)C)C(C)=[N+]2C1=C(C)c1c(C)c(C(C)(C)C)c(C)n1[B-]2(F)F` came in with an emission maximum of 565 nm.

Staying with this data set, now noted: in CCCCCCO.
With `CC1=C(C(C)(C)C)C(C)=[N+]2C1=C(C)c1c(C)c(C(C)(C)C)c(C)n1[B-]2(F)F`, the emission maximum is reported as 565.4 nm.

Consider `O=C1CCCc2c1[nH]c1cc3c(cc21)OCO3`, for which the emission maximum is 430.73 nm.

Still in this data set, the particulars now being: in CCCCO.
`CC1=C(C(C)(C)C)C(C)=[N+]2C1=C(C)c1c(C)c(C(C)(C)C)c(C)n1[B-]2(F)F` registered an emission maximum of 566.6 nm.

Staying with this data set, now noted: in CCCCOC(C)=O.
Turning to `CC1=C(C(C)(C)C)C(C)=[N+]2C1=C(C)c1c(C)c(C(C)(C)C)c(C)n1[B-]2(F)F`, the emission maximum was determined as 564.6 nm.

Still in this data set, the particulars now being: in CCCO.
As to `CC1=C(C(C)(C)C)C(C)=[N+]2C1=C(C)c1c(C)c(C(C)(C)C)c(C)n1[B-]2(F)F`, the emission maximum amounted to 564.6 nm.

The data set is the same for the next values; noted with them: in CCO.
Compound `CC1=C(C(C)(C)C)C(C)=[N+]2C1=C(C)c1c(C)c(C(C)(C)C)c(C)n1[B-]2(F)F` gave an emission maximum of 563.2 nm.

`CC(C)Nc1cc2oc3cc(NC(C)C)c(F)cc3c(=O)c2cc1F` came in with an emission maximum of 422 nm.

`CCCCN1C(=O)C(=CC=C2N(CCCC)c3ccccc3N2CCCC)C(=O)N(CCCC)C1=S` registered an emission maximum of 478 nm.

`F[B-]1(F)OC(c2ccccc2)=Nc2sc(-c3ccccc3)n[n+]21` showed an emission maximum of 409 nm.

`O=C1CCCc2c1[nH]c1cc3c(cc21)OCO3` gave an emission maximum of 437.63 nm.

Regarding `CC1(C)CC(=O)c2cc(F)c(F)cc2N1`, the emission maximum is 472 nm.

For `Cc1c(C)n2c(COC(=O)c3ccccc3I)c(C)c(=O)n2c1=O`, the emission maximum is given as 461 nm.

The compound `O=c1c2cc(F)c(O)cc2n(-c2ccccc2)c2cc(O)c(F)cc12` gave an emission maximum of 454 nm.

The same data set, now with this note: in CCOC(C)=O.
`CC1=C(C(C)(C)C)C(C)=[N+]2C1=C(C)c1c(C)c(C(C)(C)C)c(C)n1[B-]2(F)F`: the emission maximum is on record as 562.4 nm.
